How the values were obtained:
Test in all cases: relative viability (nuclei count vs DMSO), 5 days (fraction); higher = more cells survive
[1] = tested on: NCI-H727
Summary of the method: (§1)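 Each reported value is a median over duplicate plates. It expresses relative viability: treated-well nuclei count divided by vehicle-well nuclei count. Lung cancer cell lines in 1536-well plates were dosed by pin tool a day after seeding, alone with one drug or with a fixed anchor-drug dose plus five library-drug doses (not always all listed) in √10 steps, and nuclei were counted after 5 days.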

[2] = tested on: PC-3 [JPC-3]
Summary of the method: as §1

[3] = tested on: NCI-H1650
Summary of the method: as §1

[4] = tested on: NCI-H2087
Summary of the method: as §1

[5] = tested on: NCI-H1651
Summary of the method: as §1

[6] = tested on: NCI-H441
Summary of the method: as §1

[7] = tested on: NCI-H2023
Summary of the method: as §1

[8] = tested on: 201T
Summary of the method: as §1

[9] = tested on: NCI-H460
Summary of the method: as §1

[10] = tested on: NCI-H1915
Summary of the method: as §1

[11] = tested on: H3255
Summary of the method: as §1

[12] = tested on: CAL-12T
Summary of the method: as §1

[13] = tested on: LC-2-ad
Summary of the method: as §1

[14] = tested on: BEN
Summary of the method: as §1

[15] = tested on: LCLC-97TM1
Summary of the method: as §1

[16] = tested on: NCI-H1944
Summary of the method: as §1

[17] = tested on: NCI-H520
Summary of the method: as §1

[18] = tested on: A-427
Summary of the method: as §1

[19] = tested on: NCI-H596
Summary of the method: as §1

Compound `O=c1cc(N2CCOCC2)oc2c(-c3cccc4c3sc3ccccc34)cccc12` + CC1(C)CCC(c2ccc(Cl)cc2)=C(CN2CCN(c3ccc(C(=O)NS(=O)(=O)c4ccc(N[C@H](CCN5CCOCC5)CSc5ccccc5)c(S(=O)(=O)C(F)(F)F)c4)cc3)CC2)C1 [Navitoclax] (partner 0.5 µM) has a relative viability ([1]; first compound 0.01 µM) of 0.47, a relative viability ([1]; first compound 0.03162 µM) of 0.512 and a relative viability ([1]; first compound 0.1 µM) of 0.39. The relative viability ([1]; first compound 0.3162 µM) was 0.398, the relative viability ([1]; first compound 1 µM) was 0.438 and the relative viability ([2]; first compound 0.01 µM) was 0.824. For the same compound, the relative viability ([2]; first compound 0.03162 µM) was 0.784, the relative viability ([2]; first compound 0.1 µM) was 0.795 and the relative viability ([2]; first compound 0.3162 µM) was 0.783. It also gave a relative viability ([2]; first compound 1 µM) of 0.777, a relative viability ([3]; first compound 0.03162 µM) of 1.07 and a relative viability ([3]; first compound 0.1 µM) of 1.07. For the same compound, the relative viability ([3]; first compound 0.3162 µM) was 1.47, the relative viability ([3]; first compound 1 µM) was 1.07 and the relative viability ([4]; first compound 0.01 µM) was 0.929. It also gave a relative viability ([4]; first compound 0.03162 µM) of 0.904, a relative viability ([4]; first compound 0.1 µM) of 1.01 and a relative viability ([4]; first compound 0.3162 µM) of 0.919. The relative viability ([4]; first compound 1 µM) was 0.857, the relative viability ([5]; first compound 0.01 µM) was 1.07 and the relative viability ([5]; first compound 0.03162 µM) was 0.997. The relative viability ([5]; first compound 0.1 µM) was 1.01, the relative viability ([5]; first compound 0.3162 µM) was 0.991 and the relative viability ([5]; first compound 1 µM) was 0.927. For the same compound, the relative viability ([6]; first compound 0.01 µM) was 0.53, the relative viability ([6]; first compound 0.03162 µM) was 0.787 and the relative viability ([6]; first compound 0.1 µM) was 1.59. The relative viability ([6]; first compound 0.3162 µM) was 0.738, the relative viability ([6]; first compound 1 µM) was 0.585 and the relative viability ([7]; first compound 0.01 µM) was 1.07. It also gave a relative viability ([7]; first compound 0.03162 µM) of 0.912, a relative viability ([7]; first compound 0.1 µM) of 1 and a relative viability ([7]; first compound 0.3162 µM) of 0.99. For the same compound, the relative viability ([7]; first compound 1 µM) was 1.01, the relative viability ([8]; first compound 0.01 µM) was 1.2 and the relative viability ([8]; first compound 0.03162 µM) was 1.17. It also gave a relative viability ([8]; first compound 0.1 µM) of 1.19, a relative viability ([8]; first compound 0.3162 µM) of 1.19 and a relative viability ([8]; first compound 1 µM) of 1.18. The relative viability ([9]; first compound 0.01 µM) was 1.06, the relative viability ([9]; first compound 0.03162 µM) was 1.07 and the relative viability ([9]; first compound 0.1 µM) was 1.28. For the same compound, the relative viability ([9]; first compound 0.3162 µM) was 1.04, the relative viability ([9]; first compound 1 µM) was 1.12 and the relative viability ([10]; first compound 0.01 µM) was 0.792. The relative viability ([10]; first compound 0.03162 µM) was 0.788, the relative viability ([10]; first compound 0.1 µM) was 0.809 and the relative viability ([10]; first compound 0.3162 µM) was 0.779. The relative viability ([10]; first compound 1 µM) was 0.824, the relative viability ([11]; first compound 0.01 µM) was 0.557 and the relative viability ([11]; first compound 0.03162 µM) was 0.5. The relative viability ([11]; first compound 0.1 µM) was 0.555, the relative viability ([11]; first compound 0.3162 µM) was 0.54 and the relative viability ([11]; first compound 1 µM) was 0.527. The relative viability ([12]; first compound 0.01 µM) was 1.47, the relative viability ([12]; first compound 0.03162 µM) was 1.17 and the relative viability ([12]; first compound 0.1 µM) was 1.36. It also gave a relative viability ([12]; first compound 0.3162 µM) of 1.45, a relative viability ([12]; first compound 1 µM) of 1.16 and a relative viability ([13]; first compound 0.01 µM) of 0.646. The relative viability ([13]; first compound 0.1 µM) was 0.543, the relative viability ([13]; first compound 0.3162 µM) was 0.546 and the relative viability ([13]; first compound 1 µM) was 0.386. It also gave a relative viability ([14]; first compound 0.01 µM) of 0.155, a relative viability ([14]; first compound 0.03162 µM) of 0.0681 and a relative viability ([14]; first compound 0.1 µM) of 0.0673. For the same compound, the relative viability ([14]; first compound 0.3162 µM) was 0.0807, the relative viability ([14]; first compound 1 µM) was 0.0563 and the relative viability ([15]; first compound 0.01 µM) was 0.391. For the same compound, the relative viability ([15]; first compound 0.03162 µM) was 0.568, the relative viability ([15]; first compound 0.3162 µM) was 0.362 and the relative viability ([15]; first compound 1 µM) was 0.346. For the same compound, the relative viability ([16]; first compound 0.01 µM) was 1.03, the relative viability ([16]; first compound 0.03162 µM) was 1.1 and the relative viability ([16]; first compound 0.1 µM) was 1.07. For the same compound, the relative viability ([16]; first compound 0.3162 µM) was 1.09, the relative viability ([16]; first compound 1 µM) was 1.05 and the relative viability ([17]; first compound 0.01 µM) was 1.11. The relative viability ([17]; first compound 0.03162 µM) was 1.14, the relative viability ([17]; first compound 0.1 µM) was 1.18 and the relative viability ([17]; first compound 0.3162 µM) was 1.05. It also gave a relative viability ([17]; first compound 1 µM) of 1.22, a relative viability ([18]; first compound 0.01 µM) of 0.937 and a relative viability ([18]; first compound 0.03162 µM) of 0.935. For the same compound, the relative viability ([18]; first compound 0.1 µM) was 0.956, the relative viability ([18]; first compound 0.3162 µM) was 0.866 and the relative viability ([18]; first compound 1 µM) was 0.959. For the same compound, the relative viability ([19]; first compound 0.01 µM) was 0.928, the relative viability ([19]; first compound 0.03162 µM) was 0.945 and the relative viability ([19]; first compound 0.1 µM) was 0.841. It also gave a relative viability ([19]; first compound 0.3162 µM) of 0.967 and a relative viability ([19]; first compound 1 µM) of 1.17.

Source: the supplement of paper PMC10307832
